One test has as its target T1, hGIPR (Homo sapiens, UniProt P48546).
T1 construct: expressed in transfected cells
T1 sequence (P48546 22-466): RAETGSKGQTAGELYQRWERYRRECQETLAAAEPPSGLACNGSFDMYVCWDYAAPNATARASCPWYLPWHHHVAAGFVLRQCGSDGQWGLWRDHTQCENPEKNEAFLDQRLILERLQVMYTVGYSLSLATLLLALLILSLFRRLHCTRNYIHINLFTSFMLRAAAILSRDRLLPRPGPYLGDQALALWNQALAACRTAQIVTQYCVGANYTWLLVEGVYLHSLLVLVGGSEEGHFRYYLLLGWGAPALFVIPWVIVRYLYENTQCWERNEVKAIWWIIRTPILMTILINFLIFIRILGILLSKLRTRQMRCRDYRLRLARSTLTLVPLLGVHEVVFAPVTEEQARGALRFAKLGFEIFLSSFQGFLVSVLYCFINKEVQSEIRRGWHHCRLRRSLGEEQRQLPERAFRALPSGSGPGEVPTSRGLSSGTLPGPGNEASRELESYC
In words: Functional cAMP formation (HTRF) in HEK-293 clonal cells expressing hGIPR, 0.1% bovine casein, without or with 1.0% human serum albumin. The test is classed as cell-based. The method, boiled down:
(§1)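 Cells were stimulated with peptide for 30 min at 37° C, then intracellular cAMP was measured by competitive HTRF (665/620 nm ratio) and converted to nM using a cAMP standard curve. Relative EC50 and Emax came from four-parameter logistic fits of percent maximal response against peptide concentration.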

Test [1] has as its target T2, human GIP receptor (hGIPR) (Homo sapiens, UniProt P48546).
T2 construct: expressed in transfected cells; crude membranes
T2 sequence (P48546 22-466): T1 sequence (P48546 22-466)
The test is described as follows: [125I]-GIP binding, SPA with membranes of CHO cells expressing hGIPR.

The next test addresses hGLP-1R (Homo sapiens, UniProt P43220). The test is described as follows: Functional cAMP formation (HTRF) in HEK-293 clonal cells expressing hGLP-1R, 0.1% bovine casein, without or with 1.0% human serum albumin. The test is classed as cell-based. The arrangement: expressed in transfected cells. Particulars: for EC50: geometric mean. An outline of the steps: as §1
In the next test the target is T3, hGCGR (Homo sapiens, UniProt P47871).
T3 construct: expressed in transfected cells
T3 sequence (P47871 26-477): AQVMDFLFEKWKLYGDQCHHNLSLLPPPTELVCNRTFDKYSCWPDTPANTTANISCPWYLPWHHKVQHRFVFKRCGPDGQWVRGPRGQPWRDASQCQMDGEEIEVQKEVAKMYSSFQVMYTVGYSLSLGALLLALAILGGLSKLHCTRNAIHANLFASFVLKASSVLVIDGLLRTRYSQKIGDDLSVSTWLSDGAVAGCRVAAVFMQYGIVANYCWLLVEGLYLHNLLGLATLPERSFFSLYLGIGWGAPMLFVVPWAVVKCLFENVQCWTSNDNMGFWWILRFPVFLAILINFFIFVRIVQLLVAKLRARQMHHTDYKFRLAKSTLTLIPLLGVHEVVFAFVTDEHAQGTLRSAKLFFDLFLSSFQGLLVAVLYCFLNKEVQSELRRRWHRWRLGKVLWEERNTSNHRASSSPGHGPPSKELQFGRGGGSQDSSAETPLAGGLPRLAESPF
The test is described as follows: Functional cAMP formation (HTRF) in HEK-293 clonal cells expressing hGCGR, 0.1% bovine casein, without or with 1.0% human serum albumin. The test is classed as cell-based. The method, boiled down: as §1

Where [2] appears, read: human GIPR, geometric mean (SEM, n), read-out: Binding Affinity Ki, nM (SEM, n) hGIPR.
The mark [3] stands for this setting: HEK293, 0.1% bovine casein and 1.0% human serum albumin, 37° C., percent of maximal response to GIP(1-42)NH2, read-out: hGIPR Emax, % ± SEM.
Setting [4] is: cAMP, incubated at 37° C., 0.1% bovine casein (no human serum albumin), geometric mean, read-out: hGIPR EC50, nM (SEM, n).
The mark [5] stands for this setting: 0.1% bovine casein and 1.0% human serum albumin, 37° C., geometric mean, read-out: hGCGR EC50, nM (SEM, n).
Setting [6] is: cAMP, incubated at 37° C., 0.1% bovine casein (no human serum albumin), geometric mean, read-out: hGCGR EC50, nM (SEM, n).

Read-outs that look alike come from different tables or passages of the source.

Chain of hGLP-1R (P43220 24-463): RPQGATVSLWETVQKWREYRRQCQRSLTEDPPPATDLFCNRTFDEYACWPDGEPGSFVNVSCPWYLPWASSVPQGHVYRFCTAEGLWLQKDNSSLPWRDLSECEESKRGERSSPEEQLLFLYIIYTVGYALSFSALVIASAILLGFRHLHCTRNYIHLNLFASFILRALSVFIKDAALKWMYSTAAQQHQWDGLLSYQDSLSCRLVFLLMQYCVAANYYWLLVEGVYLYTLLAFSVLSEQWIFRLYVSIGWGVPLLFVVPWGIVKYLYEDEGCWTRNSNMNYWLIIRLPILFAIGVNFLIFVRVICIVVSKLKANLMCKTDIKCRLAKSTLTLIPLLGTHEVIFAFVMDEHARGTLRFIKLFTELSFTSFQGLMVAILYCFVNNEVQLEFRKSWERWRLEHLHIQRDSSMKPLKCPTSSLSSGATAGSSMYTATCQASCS

With `CCCC[C@H](NC(=O)[C@H](CC(=O)O)NC(=O)[C@H](CO)NC(=O)[C@@H](NC(=O)[C@](C)(Cc1ccccc1F)NC(=O)[C@@H](NC(=O)CNC(=O)[C@H](CCC(=O)O)NC(=O)C(C)(C)NC(=O)[C@@H](N)Cc1ccc(O)cc1)[C@@H](C)O)[C@@H](C)O)C(=O)N[C@@H](CO)C(=O)N[C@H](C(=O)N[C@@](C)(CC(C)C)C(=O)N[C@@H](CC(C)C)C(=O)N[C@@H](CC(=O)O)C(=O)N[C@@H](CCCN)C(=O)N[C@@H](CCC(N)=O)C(=O)N[C@@H](C)C(=O)N[C@@H](CCC(N)=O)C(=O)NC(C)(C)C(=O)N[C@@H](CCCN)C(=O)N[C@@H](Cc1ccccc1)C(=O)N[C@H](C(=O)N[C@@H](CCCCNC(=O)COCCOCCNC(=O)COCCOCCNC(=O)CC[C@H](NC(=O)CCCCCCCCCCCCC(=O)O)C(=O)O)C(=O)N[C@@](C)(Cc1ccc(O)cc1)C(=O)N[C@@H](CC(C)C)C(=O)N[C@H](C(=O)N[C@@H](CCCCNC(=O)COCCOCCNC(=O)COCCOCCNC(=O)CC[C@H](NC(=O)CCCCCCCCCCCCC(=O)O)C(=O)O)C(=O)NCC(=O)NCC(=O)N1CCC[C@H]1C(=O)N[C@@H](CO)C(=O)N[C@@H](CO)C(=O)NCC(=O)N[C@@H](C)C(=O)N1CCC[C@H]1C(=O)N1CCC[C@H]1C(=O)N1CCC[C@H]1C(=O)N[C@@H](CO)C(N)=O)[C@@H](C)CC)[C@@H](C)CC)[C@@H](C)CC` [Example 490], the Emax came to 97.1% at hGIPR (HEK293, cAMP, 37° C., 0.1% bovine casein and 1.0% human serum albumin, percent of maximal response to GIP(1-42)NH2, read-out: hGIPR Emax, % ± SEM); 110% at hGIPR (HEK293, cAMP, 37° C., 0.1% bovine casein, percent of maximal response to GIP(1-42)NH2, arithmetic mean, read-out: hGIPR Emax, % ± SEM); 115% at hGLP-1R (HEK293, cAMP, 37° C., 0.1% bovine casein, percent of maximal response to GLP-1(7-36)NH2, arithmetic mean, read-out: hGLP-1R Emax, % ± SEM). The EC50 on hGIPR (cAMP, 37° C., 0.1% bovine casein (no human serum albumin), geometric mean, read-out: hGIPR EC50, nM (SEM, n)) is 0.0122 nM; at hGIPR (cAMP, 37° C., 0.1% bovine casein and 1.0% human serum albumin, geometric mean (SEM, n), read-out: hGIPR EC50, nM (SEM, n)), 0.976 nM; on hGLP-1R (cAMP, 37° C., 0.1% bovine casein (no human serum albumin), read-out: hGLP-1R EC50, nM (SEM, n)) it was 0.143 nM; on hGCGR (cAMP, 37° C., 0.1% bovine casein (no human serum albumin), geometric mean, read-out: hGCGR EC50, nM (SEM, n)) it was greater than 9950 nM; at hGCGR (cAMP, 37° C., 0.1% bovine casein and 1.0% human serum albumin, geometric mean (SEM, n), read-out: hGCGR EC50, nM (SEM, n)), greater than 9950 nM. Also, the Ki in test [1] (setting [2]) is 0.0288 nM.
In the case of `CCCCCCCCCCCCCCCC(=O)N[C@@H](CCC(=O)NCCOCCOCC(=O)NCCOCCOCC(=O)NCCCC[C@H](NC(=O)CNC(=O)CNC(=O)[C@H](CCCCNC(=O)COCCOCCNC(=O)COCCOCCNC(=O)CC[C@H](NC(=O)CCCCCCCCCCCCCCC)C(=O)O)NC(=O)[C@@H](NC(=O)[C@H](CC(C)C)NC(=O)[C@](C)(Cc1ccc(O)cc1)NC(=O)[C@@H](CCC(=O)O)NC(=O)[C@@H](NC(=O)[C@H](Cc1ccccc1)NC(=O)[C@H](CCC(=O)O)NC(=O)C(C)(C)NC(=O)[C@H](CCC(N)=O)NC(=O)[C@H](C)NC(=O)[C@@H](NC(=O)[C@H](CCCN)NC(=O)[C@H](CC(=O)O)NC(=O)[C@H](CC(C)C)NC(=O)[C@](C)(CC(C)C)NC(=O)[C@@H](NC(=O)[C@H](CO)NC(=O)[C@H](Cc1ccncc1)NC(=O)[C@H](CC(=O)O)NC(=O)[C@H](CO)NC(=O)[C@@H](NC(=O)[C@](C)(Cc1ccccc1F)NC(=O)[C@@H](NC(=O)CNC(=O)[C@H](CCC(=O)O)NC(=O)C(C)(C)NC(=O)[C@@H](N)Cc1ccc(O)cc1)[C@@H](C)O)[C@@H](C)O)[C@@H](C)CC)[C@@H](C)CC)[C@@H](C)CC)[C@@H](C)CC)C(=O)N[C@@H](CO)C(=O)N[C@@H](CO)C(=O)NCC(=O)N[C@@H](C)C(=O)N1CCC[C@H]1C(=O)N1CCC[C@H]1C(=O)N1CCC[C@H]1C(=O)N[C@@H](CO)C(N)=O)C(=O)O` [Example 26], the EC50 on hGIPR (0.1% bovine casein and 1.0% human serum albumin, 37° C., geometric mean, read-out: hGIPR EC50, nM (SEM, n)) is 1.2 nM; on hGIPR (setting [4]), 0.0218 nM; at hGLP-1R (0.1% bovine casein and 1.0% human serum albumin, 37° C., read-out: hGLP-1R EC50, nM (SEM, n)), 3.93 nM; on hGCGR (setting [5]) it was greater than 9950 nM; at hGCGR (setting [6]), greater than 9950 nM. The Emax at hGIPR (setting [3]) came to 95.4 ± 2.54%. Further, in test [1] (setting [2]), the Ki was 0.0863 nM.
`CC[C@H](C)[C@H](NC(=O)[C@H](CC(C)C)NC(=O)[C@](C)(Cc1ccc(O)cc1)NC(=O)[C@H](CCCCNC(=O)COCCOCCNC(=O)COCCOCCNC(=O)CC[C@H](NC(=O)CCCCCCCCCOc1ccc(C(=O)O)cc1)C(=O)O)NC(=O)[C@@H](NC(=O)[C@H](Cc1ccccc1)NC(=O)[C@H](CCC(=O)O)NC(=O)C(C)(C)NC(=O)[C@H](CCC(N)=O)NC(=O)[C@H](C)NC(=O)[C@H](CCC(N)=O)NC(=O)[C@H](CCCN)NC(=O)[C@H](CC(=O)O)NC(=O)[C@H](CC(C)C)NC(=O)[C@](C)(CC(C)C)NC(=O)[C@@H](NC(=O)C(C)(C)NC(=O)[C@H](Cc1ccncc1)NC(=O)[C@H](CC(=O)O)NC(=O)[C@H](CO)NC(=O)[C@@H](NC(=O)[C@](C)(Cc1ccccc1F)NC(=O)[C@@H](NC(=O)CNC(=O)[C@H](CCC(=O)O)NC(=O)C(C)(C)NC(=O)[C@@H](N)Cc1ccc(O)cc1)[C@@H](C)O)[C@@H](C)O)[C@@H](C)CC)[C@@H](C)CC)C(=O)N[C@@H](CCCCNC(=O)COCCOCCNC(=O)COCCOCCNC(=O)CC[C@H](NC(=O)CCCCCCCCCOc1ccc(C(=O)O)cc1)C(=O)O)C(=O)NCC(=O)NCC(=O)N1CCC[C@H]1C(=O)N[C@@H](CO)C(=O)N[C@@H](CO)C(=O)NCC(=O)N[C@@H](C)C(=O)N1CCC[C@H]1C(=O)N1CCC[C@H]1C(=O)N1CCC[C@H]1C(=O)N[C@@H](CO)C(N)=O` [Example 403]: the Emax at hGIPR (HEK293, read-out: hGIPR Emax, % ± SEM, cAMP, 37° C., 0.1% bovine casein and 1.0% human serum albumin, percent of maximal response to GIP(1-42)NH2) was found to be 91.7%; on hGIPR (HEK293, read-out: hGIPR Emax, % ± SEM, cAMP, 37° C., 0.1% bovine casein, percent of maximal response to GIP(1-42)NH2, arithmetic mean), 98.1%. Besides, the EC50 at hGIPR (hGIPR EC50, nM (SEM, n), cAMP, 37° C., 0.1% bovine casein (no human serum albumin), geometric mean) is 0.00939 nM; on hGLP-1R (hGLP-1R EC50, nM (SEM, n), cAMP, 37° C., 0.1% bovine casein (no human serum albumin)), 0.175 nM; at hGCGR (hGCGR EC50, nM (SEM, n), cAMP, 37° C., 0.1% bovine casein (no human serum albumin), geometric mean) it was greater than 9950 nM; on hGCGR (hGCGR EC50, nM (SEM, n), cAMP, 37° C., 0.1% bovine casein and 1.0% human serum albumin, geometric mean (SEM, n)), greater than 9950 nM. The compound further came in with a Ki in test [1] of 0.0375 nM.
With `CC[C@H](C)[C@H](NC(=O)[C@H](CC(C)C)NC(=O)[C@](C)(Cc1ccc(O)cc1)NC(=O)[C@@H](CCC(=O)O)NC(=O)[C@@H](NC(=O)[C@H](Cc1ccccc1)NC(=O)[C@H](CCC(=O)O)NC(=O)C(C)(C)NC(=O)[C@H](CCC(N)=O)NC(=O)[C@H](C)NC(=O)[C@H](CCCCNC(=O)COCCOCCNC(=O)COCCOCCNC(=O)CC[C@H](NC(=O)CCCCCCCCCCCCC(=O)O)C(=O)O)NC(=O)[C@H](CCCN)NC(=O)[C@H](CC(=O)O)NC(=O)[C@H](CC(C)C)NC(=O)[C@](C)(CC(C)C)NC(=O)[C@@H](NC(=O)[C@H](CO)NC(=O)[C@H](CCc1ccc(O)cc1)NC(=O)[C@H](CC(=O)O)NC(=O)[C@H](CO)NC(=O)[C@@H](NC(=O)[C@](C)(Cc1ccccc1F)NC(=O)[C@@H](NC(=O)CNC(=O)[C@H](CCC(=O)O)NC(=O)C(C)(C)NC(=O)[C@@H](N)Cc1ccc(O)cc1)[C@@H](C)O)[C@@H](C)O)[C@@H](C)CC)[C@@H](C)CC)C(=O)N[C@@H](CCC(=O)O)C(=O)NCC(=O)NCC(=O)N[C@@H](CCCCNC(=O)COCCOCCNC(=O)COCCOCCNC(=O)CC[C@H](NC(=O)CCCCCCCCCCCCC(=O)O)C(=O)O)C(=O)N[C@@H](CO)C(=O)N[C@@H](CO)C(=O)NCC(=O)N[C@@H](C)C(=O)N1CCC[C@H]1C(=O)N1CCC[C@H]1C(=O)N1CCC[C@H]1C(=O)N[C@@H](CO)C(N)=O` [Example 59], the Emax at hGIPR (setting [3]) was found to be 90.3 ± 3.64%; on hGIPR (HEK293, percent of maximal response to GIP(1-42)NH2, 37° C., 0.1% bovine casein, arithmetic mean, read-out: hGIPR Emax, % ± SEM) it was 89.2 ± 4.62%. The EC50 is 0.024 nM on hGIPR (setting [4]); 0.202 nM on hGLP-1R (cAMP, incubated at 37° C., 0.1% bovine casein (no human serum albumin), read-out: hGLP-1R EC50, nM (SEM, n)); greater than 9950 nM on hGCGR (setting [5]); greater than 9950 nM at hGCGR (setting [6]). Also, the Ki in test [1] (setting [2]) came to 0.171 nM.

These data come from patent publication US20230265151A1, “GIP/GLP1 CO-AGONIST COMPOUNDS” (priority 2020, published 2023).
